The molecules below were run on contractile response to histamine, terminal ileum (assay: Antihistaminic action: inhibition of contractile response to histamine (10^-6 M) in isolated terminal ileum). Conditions: Cavia porcellus, 0.05 h, read-out: Inhibitory rate before washing.
Format: cell-based, guinea-pig
Protocol: The terminal ileum was removed from a starved guinea-pig and set up in an organ bath containing Tyrode solution maintained at 26° C. Contractile tension was recorded isometrically under a tension of 1.5 g with a strain-gauge transducer. After obtaining control response to histamine (10^-6 M), antagonists were added to the bath and allowed to remain in contact with the tissue for 3 minutes. Contractile response to histamine in the presence of the antagonists was recorded and the inhibitory rate was calculated according to the following equation: [formula] The tissue was then washed at 10 min intervals with fresh Tyrode solution. Contractile response to histamine was tested after each wash in order to study the duration of action of the antagonists.

| Compound | inhibition at 0.01 µM [%] | inhibition at 0.1 µM [%] |
| --- | --- | --- |
| CN1CCCN(C(c2ccccc2)c2ccc(Cl)cc2)CC1 (stereo not shown) [(3), Homochlorcyclizine, reference compound] | 13 | 88 |

Same assay, conditions: Cavia porcellus, 0.05 h; antagonist 10^-6 M, 3 min contact, before washing; read-out: Inhibitory rate before washing

| Compound | inhibition at 1 µM [%] |
| --- | --- |
| Cn1c(=O)c2c(ncn2CCCN2CCCN(c3ccccc3)CC2)n(C)c1=O [(4)] | 100 |
| Cn1c(=O)c2c(ncn2CCCN2CCCN(Cc3ccccc3Cl)CC2)n(C)c1=O [(6)] | 100 |
| Cn1c(=O)c2c(ncn2CCCN2CCCN(Cc3ccc(Cl)cc3)CC2)n(C)c1=O [(5)] | 100 |
| Cn1c(=O)c2c(ncn2CCCN2CCCN(Cc3ccc([N+](=O)[O-])cc3)CC2)n(C)c1=O [(10)] | 100 |

Same assay, conditions: Cavia porcellus, 0.05 h; antagonist 10^-7 M, 3 min contact, before washing; read-out: Inhibitory rate before washing

| Compound | inhibition at 0.1 µM [%] |
| --- | --- |
| Cn1c(=O)c2c(ncn2CCCN2CCCN(c3ccccc3)CC2)n(C)c1=O [(4)] | 64 |
| Cn1c(=O)c2c(ncn2CCCN2CCCN(Cc3ccccc3Cl)CC2)n(C)c1=O [(6)] | 80 |
| Cn1c(=O)c2c(ncn2CCCN2CCCN(Cc3ccc(Cl)cc3)CC2)n(C)c1=O [(5)] | 100 |
| Cn1c(=O)c2c(ncn2CCCN2CCCN(Cc3ccc([N+](=O)[O-])cc3)CC2)n(C)c1=O [(10)] | 65 |

Same assay, conditions: Cavia porcellus, 0.05 h; antagonist 10^-8 M, 3 min contact, before washing; read-out: Inhibitory rate before washing

| Compound | inhibition at 0.01 µM [%] |
| --- | --- |
| Cn1c(=O)c2c(ncn2CCCN2CCCN(c3ccccc3)CC2)n(C)c1=O [(4)] | 12 |
| Cn1c(=O)c2c(ncn2CCCN2CCCN(Cc3ccccc3Cl)CC2)n(C)c1=O [(6)] | 14 |
| Cn1c(=O)c2c(ncn2CCCN2CCCN(Cc3ccc(Cl)cc3)CC2)n(C)c1=O [(5)] | 2 |
| Cn1c(=O)c2c(ncn2CCCN2CCCN(Cc3ccc([N+](=O)[O-])cc3)CC2)n(C)c1=O [(10)] | 21 |

Same assay, conditions: Cavia porcellus, read-out: Inhibitory rate after 1st washing

| Compound | inhibition at 0.01 µM [%] | inhibition at 0.1 µM [%] |
| --- | --- | --- |
| CN1CCCN(C(c2ccccc2)c2ccc(Cl)cc2)CC1 (stereo not shown) [(3), Homochlorcyclizine, reference compound] | 46 | 84 |

Same assay, conditions: Cavia porcellus, read-out: Inhibitory rate after 2nd washing

| Compound | inhibition at 0.01 µM [%] | inhibition at 0.1 µM [%] |
| --- | --- | --- |
| CN1CCCN(C(c2ccccc2)c2ccc(Cl)cc2)CC1 (stereo not shown) [(3), Homochlorcyclizine, reference compound] | 42 | 63 |

Same assay, conditions: Cavia porcellus, read-out: Inhibitory rate after 3rd washing

| Compound | inhibition at 0.1 µM [%] |
| --- | --- |
| CN1CCCN(C(c2ccccc2)c2ccc(Cl)cc2)CC1 (stereo not shown) [(3), Homochlorcyclizine, reference compound] | 55 |

Same assay, conditions: Cavia porcellus; antagonist 10^-6 M, after 1st washing; read-out: Inhibitory rate after 1st washing

| Compound | inhibition at 1 µM [%] |
| --- | --- |
| Cn1c(=O)c2c(ncn2CCCN2CCCN(c3ccccc3)CC2)n(C)c1=O [(4)] | 10 |
| Cn1c(=O)c2c(ncn2CCCN2CCCN(Cc3ccccc3Cl)CC2)n(C)c1=O [(6)] | 100 |
| Cn1c(=O)c2c(ncn2CCCN2CCCN(Cc3ccc(Cl)cc3)CC2)n(C)c1=O [(5)] | 84 |
| Cn1c(=O)c2c(ncn2CCCN2CCCN(Cc3ccc([N+](=O)[O-])cc3)CC2)n(C)c1=O [(10)] | 46 |

Same assay, conditions: Cavia porcellus; antagonist 10^-6 M, after 2nd washing; read-out: Inhibitory rate after 2nd washing

| Compound | inhibition at 1 µM [%] |
| --- | --- |
| Cn1c(=O)c2c(ncn2CCCN2CCCN(c3ccccc3)CC2)n(C)c1=O [(4)] | 0 |
| Cn1c(=O)c2c(ncn2CCCN2CCCN(Cc3ccc(Cl)cc3)CC2)n(C)c1=O [(5)] | 65 |
| Cn1c(=O)c2c(ncn2CCCN2CCCN(Cc3ccc([N+](=O)[O-])cc3)CC2)n(C)c1=O [(10)] | 19 |

Same assay, conditions: Cavia porcellus; antagonist 10^-6 M, after 3rd washing; read-out: Inhibitory rate after 3rd washing

| Compound | inhibition at 1 µM [%] |
| --- | --- |
| Cn1c(=O)c2c(ncn2CCCN2CCCN(Cc3ccc(Cl)cc3)CC2)n(C)c1=O [(5)] | 58 |

Same assay, conditions: Cavia porcellus; antagonist 10^-7 M, after 1st washing; read-out: Inhibitory rate after 1st washing

| Compound | inhibition at 0.1 µM [%] |
| --- | --- |
| Cn1c(=O)c2c(ncn2CCCN2CCCN(c3ccccc3)CC2)n(C)c1=O [(4)] | 4 |
| Cn1c(=O)c2c(ncn2CCCN2CCCN(Cc3ccccc3Cl)CC2)n(C)c1=O [(6)] | 73 |
| Cn1c(=O)c2c(ncn2CCCN2CCCN(Cc3ccc(Cl)cc3)CC2)n(C)c1=O [(5)] | 64 |
| Cn1c(=O)c2c(ncn2CCCN2CCCN(Cc3ccc([N+](=O)[O-])cc3)CC2)n(C)c1=O [(10)] | 16 |

Same assay, conditions: Cavia porcellus; antagonist 10^-7 M, after 2nd washing; read-out: Inhibitory rate after 2nd washing

| Compound | inhibition at 0.1 µM [%] |
| --- | --- |
| Cn1c(=O)c2c(ncn2CCCN2CCCN(c3ccccc3)CC2)n(C)c1=O [(4)] | 0 |
| Cn1c(=O)c2c(ncn2CCCN2CCCN(Cc3ccccc3Cl)CC2)n(C)c1=O [(6)] | 58 |
| Cn1c(=O)c2c(ncn2CCCN2CCCN(Cc3ccc(Cl)cc3)CC2)n(C)c1=O [(5)] | 31 |

Same assay, conditions: Cavia porcellus; antagonist 10^-7 M, after 3rd washing; read-out: Inhibitory rate after 3rd washing

| Compound | inhibition at 0.1 µM [%] |
| --- | --- |
| Cn1c(=O)c2c(ncn2CCCN2CCCN(Cc3ccccc3Cl)CC2)n(C)c1=O [(6)] | 47 |
| Cn1c(=O)c2c(ncn2CCCN2CCCN(Cc3ccc(Cl)cc3)CC2)n(C)c1=O [(5)] | 20 |

Same assay, conditions: Cavia porcellus; antagonist 10^-8 M, after 1st washing; read-out: Inhibitory rate after 1st washing

| Compound | inhibition at 0.01 µM [%] |
| --- | --- |
| Cn1c(=O)c2c(ncn2CCCN2CCCN(c3ccccc3)CC2)n(C)c1=O [(4)] | 0 |
| Cn1c(=O)c2c(ncn2CCCN2CCCN(Cc3ccccc3Cl)CC2)n(C)c1=O [(6)] | 14 |
| Cn1c(=O)c2c(ncn2CCCN2CCCN(Cc3ccc(Cl)cc3)CC2)n(C)c1=O [(5)] | 7 |
| Cn1c(=O)c2c(ncn2CCCN2CCCN(Cc3ccc([N+](=O)[O-])cc3)CC2)n(C)c1=O [(10)] | 12 |

Same assay, conditions: Cavia porcellus; antagonist 10^-8 M, after 2nd washing; read-out: Inhibitory rate after 2nd washing

| Compound | inhibition at 0.01 µM [%] |
| --- | --- |
| Cn1c(=O)c2c(ncn2CCCN2CCCN(Cc3ccccc3Cl)CC2)n(C)c1=O [(6)] | 14 |
| Cn1c(=O)c2c(ncn2CCCN2CCCN(Cc3ccc(Cl)cc3)CC2)n(C)c1=O [(5)] | 4 |
| Cn1c(=O)c2c(ncn2CCCN2CCCN(Cc3ccc([N+](=O)[O-])cc3)CC2)n(C)c1=O [(10)] | 0 |

Same assay, conditions: Cavia porcellus; antagonist 10^-8 M, after 3rd washing; read-out: Inhibitory rate after 3rd washing

| Compound | inhibition at 0.01 µM [%] |
| --- | --- |
| Cn1c(=O)c2c(ncn2CCCN2CCCN(Cc3ccccc3Cl)CC2)n(C)c1=O [(6)] | 6 |

Same assay, conditions: antagonist 10^-7 M, after 4th washing

| Compound | Inhibitory rate after 4th washing [%] |
| --- | --- |
| Cn1c(=O)c2c(ncn2CCCN2CCCN(Cc3ccccc3Cl)CC2)n(C)c1=O [(6)] | 38 |
| CN1CCCN(C(c2ccccc2)c2ccc(Cl)cc2)CC1 (stereo not shown) [(3), Homochlorcyclizine, reference compound] | 39 |

Same assay, conditions: antagonist 10^-7 M, after 5th washing

| Compound | Inhibitory rate after 5th washing [%] |
| --- | --- |
| Cn1c(=O)c2c(ncn2CCCN2CCCN(Cc3ccccc3Cl)CC2)n(C)c1=O [(6)] | 29 |
| Cn1c(=O)c2c(ncn2CCCN2CCCN(Cc3ccc(Cl)cc3)CC2)n(C)c1=O [(5)] | 0 |
| CN1CCCN(C(c2ccccc2)c2ccc(Cl)cc2)CC1 (stereo not shown) [(3), Homochlorcyclizine, reference compound] | 25 |

Same assay, conditions: antagonist 10^-7 M, after 6th washing

| Compound | Inhibitory rate after 6th washing [%] |
| --- | --- |
| Cn1c(=O)c2c(ncn2CCCN2CCCN(Cc3ccccc3Cl)CC2)n(C)c1=O [(6)] | 29 |
| CN1CCCN(C(c2ccccc2)c2ccc(Cl)cc2)CC1 (stereo not shown) [(3), Homochlorcyclizine, reference compound] | 33 |

Same assay, conditions: antagonist 10^-7 M, after 7th washing

| Compound | Inhibitory rate after 7th washing [%] |
| --- | --- |
| Cn1c(=O)c2c(ncn2CCCN2CCCN(Cc3ccccc3Cl)CC2)n(C)c1=O [(6)] | 20 |
